According to ChEMBL document CHEMBL6127065, “Design and Synthesis of c-Met and HDAC Dual Inhibitors for the Treatment of Breast Cancer” (ACS Med Chem Lett, 2024):
Active and inactive are the calls of the source. No cut-off for these calls is given here.

How the values were obtained:
[1] = molecular target: T1, Hepatocyte growth factor receptor (Homo sapiens, UniProt P08581); assay: Inhibition of c-Met (unknown origin) using Poly(Glu:Tyr)(4:1) and ATP as substrate incubated for 45 mins by Kinase-Glo Max reagent based luminescence analysis
T1 sequence (P08581 whole entry): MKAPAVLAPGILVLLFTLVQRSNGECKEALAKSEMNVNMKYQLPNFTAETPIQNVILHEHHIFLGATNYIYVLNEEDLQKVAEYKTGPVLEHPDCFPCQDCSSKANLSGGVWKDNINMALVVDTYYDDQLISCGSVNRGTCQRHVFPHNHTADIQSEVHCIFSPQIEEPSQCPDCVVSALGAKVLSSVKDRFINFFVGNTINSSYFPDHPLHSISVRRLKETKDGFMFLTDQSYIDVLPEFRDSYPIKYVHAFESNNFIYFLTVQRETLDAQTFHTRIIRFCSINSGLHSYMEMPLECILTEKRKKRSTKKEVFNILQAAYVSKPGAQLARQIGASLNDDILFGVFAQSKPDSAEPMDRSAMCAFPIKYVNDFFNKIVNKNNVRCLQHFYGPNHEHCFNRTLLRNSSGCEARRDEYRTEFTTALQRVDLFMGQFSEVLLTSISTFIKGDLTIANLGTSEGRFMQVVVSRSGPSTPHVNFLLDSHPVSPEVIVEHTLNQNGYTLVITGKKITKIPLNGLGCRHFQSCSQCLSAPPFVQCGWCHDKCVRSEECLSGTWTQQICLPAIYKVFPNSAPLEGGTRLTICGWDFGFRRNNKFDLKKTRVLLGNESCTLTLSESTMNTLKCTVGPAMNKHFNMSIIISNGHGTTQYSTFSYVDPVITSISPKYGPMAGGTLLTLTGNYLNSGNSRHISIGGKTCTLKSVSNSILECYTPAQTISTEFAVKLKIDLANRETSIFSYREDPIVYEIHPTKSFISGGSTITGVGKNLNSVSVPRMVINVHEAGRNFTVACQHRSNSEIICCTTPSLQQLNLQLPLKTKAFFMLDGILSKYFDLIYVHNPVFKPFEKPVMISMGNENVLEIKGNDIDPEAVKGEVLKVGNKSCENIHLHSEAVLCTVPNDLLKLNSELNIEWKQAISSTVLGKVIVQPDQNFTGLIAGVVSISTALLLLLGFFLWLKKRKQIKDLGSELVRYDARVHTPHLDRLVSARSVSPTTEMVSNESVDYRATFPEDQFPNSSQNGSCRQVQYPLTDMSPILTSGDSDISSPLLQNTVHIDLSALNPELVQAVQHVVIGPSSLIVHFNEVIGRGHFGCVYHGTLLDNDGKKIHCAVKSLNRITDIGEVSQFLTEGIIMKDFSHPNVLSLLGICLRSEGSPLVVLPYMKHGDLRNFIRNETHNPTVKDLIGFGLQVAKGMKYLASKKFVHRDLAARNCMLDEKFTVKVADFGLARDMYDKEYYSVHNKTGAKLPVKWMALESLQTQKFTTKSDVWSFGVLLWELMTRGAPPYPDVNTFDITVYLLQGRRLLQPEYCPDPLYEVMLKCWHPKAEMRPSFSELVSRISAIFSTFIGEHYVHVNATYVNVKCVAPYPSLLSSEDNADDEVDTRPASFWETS

[2] = test system: MDA-MB-453; assay: Antiproliferative activity against human MDA-MB-453 cells assessed as reduction in cell growth incubated for 72 hrs by MTT assay; details: MDA-MB-453, 72 h
[3] = test system: MDA-MB-468; assay: Antiproliferative activity against human MDA-MB-468 cells assessed as reduction in cell growth incubated for 72 hrs by MTT assay; details: MDA-MB-468, 72 h
[4] = test system: MDA-MB-231; assay: Antiproliferative activity against human MDA-MB-231 cells assessed as reduction in cell growth incubated for 72 hrs by MTT assay; details: MDA-MB-231, 72 h
[5] = test system: MDA-MB-231; assay: Inhibition of colony formation in human MDA-MB-231 cells at 1 to 25 uM incubated for 7 days by crystal violet staining based analysis; assay type: functional, cell-based; details: dose 1-25 µM, time 7.0 day
[6] = Cytotoxicity against human MCF-10A cells assessed as reduction in cell viability incubated for 72 hrs by MTT assay; assay type: toxicity, cell-based
[7] = test system: MDA-MB-231; assay: Anti-migration activity in human MDA-MB-231 cells assessed as inhibition of cell invasion incubated for 72 hrs by Transwell assay; assay type: functional, cell-based; details: dose 1-25 µM
[8] = test system: MDA-MB-231; assay: Induction of apoptosis in human MDA-MB-231 cells assessed as viable cells at 2.5 uM incubated for 48 hrs by AnnexinV-FITC/PI staining based flow cytometry (reference value: 91.22 to 92.84%); assay type: functional; details: read-out: Activity
[9] = test system: MDA-MB-231; assay: Induction of apoptosis in human MDA-MB-231 cells assessed as early apoptotic cells at 2.5 uM incubated for 48 hrs by AnnexinV-FITC/PI staining based flow cytometry (reference value: 1.6 to 2.41%); assay type: functional
[10] = test system: MDA-MB-231; assay: Induction of apoptosis in human MDA-MB-231 cells assessed as late apoptotic cells at 2.5 uM incubated for 48 hrs by AnnexinV-FITC/PI staining based flow cytometry (reference value: 3.77 to 3.84%); assay type: functional
[11] = test system: MDA-MB-231; assay: Induction of apoptosis in human MDA-MB-231 cells assessed as necrotic cells at 2.5 uM incubated for 48 hrs by AnnexinV-FITC/PI staining based flow cytometry (reference value: 1.79 to 2.53%); assay type: functional
[12] = test system: MDA-MB-231; assay: Induction of apoptosis in human MDA-MB-231 cells assessed as early apoptotic cells at 5 uM incubated for 48 hrs by AnnexinV-FITC/PI staining based flow cytometry (reference value: 1.6 to 2.41%); assay type: functional
[13] = test system: MDA-MB-231; assay: Induction of apoptosis in human MDA-MB-231 cells assessed as necrotic cells at 5 uM incubated for 48 hrs by AnnexinV-FITC/PI staining based flow cytometry (reference value: 1.79 to 2.53%); assay type: functional
[14] = test system: MDA-MB-231; assay: Induction of apoptosis in human MDA-MB-231 cells assessed as early apoptotic cells at 10 uM incubated for 48 hrs by AnnexinV-FITC/PI staining based flow cytometry (reference value: 1.6 to 2.41%); assay type: functional
[15] = test system: MDA-MB-231; assay: Induction of apoptosis in human MDA-MB-231 cells assessed as late apoptotic cells at 10 uM incubated for 48 hrs by AnnexinV-FITC/PI staining based flow cytometry (reference value: 3.77 to 3.84%); assay type: functional
[16] = test system: MDA-MB-231; assay: Induction of apoptosis in human MDA-MB-231 cells assessed as necrotic cells at 10 uM incubated for 48 hrs by AnnexinV-FITC/PI staining based flow cytometry (reference value: 1.79 to 2.53%); assay type: functional
[17] = test system: MDA-MB-231; assay: Induction of apoptosis in human MDA-MB-231 cells assessed as viable cells at 25 uM incubated for 48 hrs by AnnexinV-FITC/PI staining based flow cytometry (reference value: 91.22 to 92.84%); assay type: functional; details: read-out: Activity
[18] = test system: MDA-MB-231; assay: Induction of apoptosis in human MDA-MB-231 cells assessed as early apoptotic cells at 25 uM incubated for 48 hrs by AnnexinV-FITC/PI staining based flow cytometry (reference value: 1.6 to 2.41%); assay type: functional
[19] = test system: MDA-MB-231; assay: Induction of apoptosis in human MDA-MB-231 cells assessed as necrotic cells at 25 uM incubated for 48 hrs by AnnexinV-FITC/PI staining based flow cytometry (reference value: 1.79 to 2.53%); assay type: functional
[20] = test system: MDA-MB-231; assay: Induction of apoptosis in human MDA-MB-231 cells assessed as upregulation of cleaved caspase 3 level at 1 to 25 uM incubated for 48 hrs by western blot analysis; assay type: functional, cell-based; details: dose 1-25 µM
[21] = test system: MDA-MB-231; assay: Induction of apoptosis in human MDA-MB-231 cells assessed as upregulation of cleaved caspase 7 level at 1 to 25 uM incubated for 48 hrs by western blot analysis; assay type: functional, cell-based; details: dose 1-25 µM
[22] = test system: MDA-MB-231; assay: Induction of apoptosis in human MDA-MB-231 cells assessed as upregulation of cleaved caspase 8 level at 1 to 25 uM incubated for 48 hrs by western blot analysis; assay type: functional, cell-based; details: dose 1-25 µM
[23] = test system: MDA-MB-231; assay: Induction of cell cycle arrest in human MDA-MB-231 cells assessed as accumulation of cells at G2/M phase at 1 uM incubated for 48 hrs by PI staining based flow cytometry (reference value: 29.42 to 32.08%); assay type: functional
[24] = test system: MDA-MB-231; assay: Induction of cell cycle arrest in human MDA-MB-231 cells assessed as accumulation of cells at G0/G1 phase at 2.5 uM incubated for 48 hrs by PI staining based flow cytometry (reference value: 55.36 to 55.82%); assay type: functional
[25] = test system: MDA-MB-231; assay: Induction of cell cycle arrest in human MDA-MB-231 cells assessed as accumulation of cells at S phase at 2.5 uM incubated for 48 hrs by PI staining based flow cytometry (reference value: 12.56 to 14.76%); assay type: functional
[26] = test system: MDA-MB-231; assay: Induction of cell cycle arrest in human MDA-MB-231 cells assessed as accumulation of cells at G0/G1 phase at 10 uM incubated for 48 hrs by PI staining based flow cytometry (reference value: 55.36 to 55.82%); assay type: functional
[27] = test system: MDA-MB-231; assay: Induction of cell cycle arrest in human MDA-MB-231 cells assessed as accumulation of cells at G2/M phase at 10 uM incubated for 48 hrs by PI staining based flow cytometry (reference value: 29.42 to 32.08%); assay type: functional
[28] = test system: MDA-MB-231; assay: Induction of cell cycle arrest in human MDA-MB-231 cells assessed as accumulation of cells at S phase at 25 uM incubated for 48 hrs by PI staining based flow cytometry (reference value: 12.56 to 14.76%); assay type: functional
[29] = test system: MDA-MB-231; assay: Induction of cell cycle arrest in human MDA-MB-231 cells assessed as accumulation of cells at G2/M phase at 25 uM incubated for 48 hrs by PI staining based flow cytometry (reference value: 29.42 to 32.08%); assay type: functional
[30] = molecular target: T1, Hepatocyte growth factor receptor; assay: Inhibition of c-Met in human MDA-MB-231 cells assessed as inhibition of ERK phosphorylation incubated for 48 hrs by western blot analysis; assay type: cell-based; details: dose 1-25 µM
[31] = molecular target: T1, Hepatocyte growth factor receptor; assay: Inhibition of c-Met in human MDA-MB-231 cells assessed as inhibition of Akt phosphorylation at […] residue incubated for 48 hrs by western blot analysis; assay type: cell-based; details: dose 1-25 µM
[32] = molecular target: T1, Hepatocyte growth factor receptor; assay: Inhibition of c-Met in human MDA-MB-231 cells assessed as inhibition of Akt phosphorylation at Ser473 residue incubated for 48 hrs by western blot analysis; assay type: cell-based; details: dose 1-25 µM

In the case of CC(c1ccc2ncccc2c1)n1nnc2ncc(N3CCN(Cc4ccc(/C=C/C(=O)Nc5ccccc5N)cc4)CC3)nc21 (configuration not stated), the IC50 [1] is reported as 28.9 nM, the IC50 [2] is reported as 5.47 µM and the IC50 [3] is reported as 1250 nM. For the same molecule, the IC50 [4] was 3.57 µM, the inhibition [5] was “Dose-Dependent Effect” and the IC50 at 72 h [6] was over 25 µM. The Activity [7] was “Dose-Dependent Effect”, the viability at 2.5 µM [8] was 84.3% and the Activity [9] was 4.92%. It also gave an Activity [10] of 6.97%, an Activity [11] of 3.83% and an Activity [12] of 3.1%. For the same molecule, the Activity [13] was 4.59%, the Activity [14] was 4.56% and the Activity [15] was 10.69%. It also gave an Activity [16] of 1.67%, a viability at 25 µM [17] of 82.8% and an Activity [18] of 3.51%. The Activity [19] was 1.42%, the Activity [20] was “Active” and the Activity [21] was “Active”. For the same molecule, the Activity [22] was “Active”, the Activity [23] was 27.08% and the Activity [24] was 67.14%. The Activity [25] was 9.53%, the Activity [26] was 75.71% and the Activity [27] was 16.08%. The Activity [28] was 6.06%, the Activity [29] was 10.57% and the inhibition [30] was “Dose-Dependent Effect”. For the same molecule, the inhibition [31] was “Dose-Dependent Effect” and the inhibition [32] was “Dose-Dependent Effect”.
